Experimental data reported in article PMC11521937, “Expression and characterization of pantothenate energy‐coupling factor transporters as an anti‐infective drug target” (Protein Science : A Publication of the Protein Society, 2024).
≈ marks a conversion by molar mass, not a printed value. Where two headings read alike, the source gives them in different places.

What was measured:
ECF‐PanT = ECF‐PanT (Streptococcus pneumoniae, UniProt A0A0H2ZPG6+A0ACD7PRR9+Q04HV7+Q97N51); experiment: SPR binding to immobilized ECF‐PanT; conditions: for Kd: SPR, S. pneumoniae ECF‐PanT, n = 2; for kon: pH 7.5, read-out: k a; for koff: pH 7.5, read-out: k d
Description: (§1) The ECF‐PanT, ECF‐module, and ECF‐FolT2, each bearing a histidine tag, were immobilized on a high‐affinity poly‐nitrilotriacetic acid (poly‐NTA) sensor chip, which was initially activated using NiCl2.
(§2) Additionally, the protein was maintained in the buffer containing 5% (v/v) DMSO. For a more in‐depth description of the procedures, please refer to Appendix S1.
(§3) Surface plasmon resonance (SPR)
(§4) The SPR binding studies were performed using a Reichert 4SPR surface plasmon resonance spectrometer (Reichert Technologies, Buffalo, NY, USA), and medium–density NTA derivatized polycarboxylate hydrogel NiHC200M sensor chips (XanTec Bioanalytics, Düsseldorf, Germany). The experimental procedure involved two rounds of nickel activation and one immobilization step at a […]
(§5) standard protocol as provided by Xantec bioanalytics with a slight modification based on the recombinant proteins. The flow-cell 4 was left blank to serve as a reference.
(§6) The immobilization buffer employed for the immobilization process consisted of 10 mM HEPES with a pH of 7.5, 50 mM NaCl, 50 µM EDTA, and 0.05% DDM without DMSO. Following the immobilization step, for the binding study of the compounds, the running buffer was exchanged for the mentioned buffer with 5% v/v DMSO. This was done to ensure consistency in the percentage of DMSO present in the solutions containing the respective testing inhibitors, as these inhibitors were soluble in the DMSO solvent. By maintaining the same DMSO concentration, we aimed to minimize any potential solvent-related effects on the assay results. All running buffers were filtered and degassed before use.
(§7) The system was initially primed with 5 mM NiCl2 with an association and dissociation time of 2 min for each to activate the NTA sensor chip. Then, the recombinant proteins with a concentration of 200 nM were injected at a flow rate of 10 µL/min for 8 min. Finally, the baseline check with the running […]
(§8) First, the calibration curve for correction of the DMSO effect was prepared; the concentrations were […]
(§9) concentration of DMSO in all the samples was set to 5% v/v DMSO. The samples (200 µL) were loaded on a 96-well plate and were injected at a flow rate of 50 μL/min. Single-cycle kinetics were applied for KD determination. The association time was set to 60 s, and the dissociation phase was recorded for 120 s. For surface regeneration, 0.35 M EDTA (pH 8.5) and 0.1 M NaOH were used. Data processing and […]
(§10) were calculated by sequential subtractions of the corresponding curves obtained from the reference flow cell and the running buffer (blank). SPR responses were expressed in the resonance unit (RU). The KD values were calculated by global fitting of the kinetic curves as well as fitting of the steady state binding responses to a 1:1 Langmuir interaction model.
(§11) The SPR experiments were conducted at least two times, representing independent replicates. The […]
(§12) interactions, are presented in Figure S12 for ECF-PanT, Figure S13 for ECF-FolT2, and Figure S14 for […]

[1] = In vitro MTT cytotoxicity assay, HepG2; assay type: cell-based, human; conditions: human, read-out: Percent (%) cell viability at 100 μM, HepG2 cells
Description: In vitro cytotoxicity evaluation […]
with minor modifications, which will be detailed below.
To obtain information regarding the toxicity of our compounds, their impact on the viability of human cells was investigated. HepG2 and A549 cells (2 × 10^4 cells per well) were seeded in 96-well, flat-bottomed culture plates in 100 µL culture medium (DMEM containing 10% fetal calve serum, 1% penicillin-streptomycin). Twenty-four hours after seeding the cells, medium was removed and replaced by medium containing test compounds in a final DMSO concentration of 1%. Compounds were tested in duplicates at a single concentration in 1% DMSO/medium. Epirubicin and doxorubicin were used as positive controls in serial dilutions starting from 10 µM, and rifampicin was used as a negative control (at 100 µM). The living cell mass was determined 48 h after treatment with compounds by adding 0.1 volumes of 3-(4,5-dimethylthiazol-2-yl)-2,5-diphenyltetrazolium bromide (MTT) solution (5 mg/mL sterile PBS) (Sigma, St. Louis, MO) to the wells. After incubating the cells for 30 min at 37 °C (atmosphere containing 5% CO2), medium was removed and MTT crystals were dissolved in 75 µL of a solution containing 10% SDS and 0.5% acetic acid in DMSO. The optical density (OD) of the samples was determined photometrically at 570 nm in a PHERAstar Omega plate reader (BMG labtech, Ortenberg, Germany). To obtain percent viability for each sample, their ODs were related to those of DMSO controls. At least two independent measurements were performed for each compound. The calculation of IC50 was performed using the nonlinear regression function of GraphPad Prism 10 (GraphPad Software, San Diego, CA, USA). […]

S. pneumoniae ECF‐PanT = experiment: Transport‐activity assay, radiolabeled pantothenate uptake into proteoliposomes; assay type: biochemical, Streptococcus pneumoniae; conditions: 250 μM compound + 5 mM of Mg-ATP, relative to 5 mM Mg‐ATP alone
Description: Based on the reported transport activity assay on L. delbrueckii (Swier et al., [2016]), for the first time, we adapted this assay to a pathogenic bacterium. To do so, we purified the ECF‐PanT transporter, reconstituted it into proteoliposomes, and carried out transport assays with radiolabeled pantothenate. Upon the addition of MgATP, the radiolabeled pantothenate is translocated across the membrane via an ATP‐dependent mechanism. MgATP at 5 mM served as a positive control, supplying the proteins with the energy needed to complete the transport cycle, while MgADP at 5 mM was used as a negative control. The uptake of the radiolabeled substrate into proteoliposomes was measured using a scintillation counter.
The assay was performed based on the published protocol (Swier et al., [2016]). The only modification was reconstitution of S. pneumoniae ECF‐PanT in a 1:125 (w/w) ratio of protein to E. coli polar lipids into large unilamellar vesicles and using radiolabeled pantothenate for uptake.

ECF‐FolT2 = ECF‐FolT2 (Lactobacillus delbrueckii subsp. bulgaricus, UniProt Q1G929+Q1GBI8+Q1GBI9+Q1GBJ0); experiment: SPR binding to immobilized ECF‐FolT2; conditions: for Kd: n = 2
Description: as §1, §2, §3, §4, §5, §6, §7, §8, §9, §10, §11, §12

[2] = tested on: Streptococcus pneumoniae DSM‐20566; experiment: bacterial growth assay (MIC), S. pneumoniae DSM‐20566; assay type: cell-based
[3] = global fit of kinetic curves, read-out: Kinetic, K D
[4] = steady state fit, read-out: Equilibrium, K D
[5] = SPR, L. delbrueckii ECF‐FolT2, global fit of kinetic curves, read-out: Kinetic, K D
[6] = SPR, L. delbrueckii ECF‐FolT2, steady state fit, read-out: Equilibrium, K D
[7] = pH 7.5, SPR, L. delbrueckii ECF‐FolT2, n = 2, read-out: k a
[8] = pH 7.5, SPR, L. delbrueckii ECF‐FolT2, n = 2, read-out: k d
[9] = Equilibrium, K D, steady state fit
[10] = Kinetic, K D, global fit of kinetic curves
[11] = Equilibrium, K D, SPR, L. delbrueckii ECF‐FolT2, steady state fit
[12] = Kinetic, K D, SPR, L. delbrueckii ECF‐FolT2, global fit of kinetic curves

Sequence of ECF‐FolT2 (Q1GBJ0 whole entry): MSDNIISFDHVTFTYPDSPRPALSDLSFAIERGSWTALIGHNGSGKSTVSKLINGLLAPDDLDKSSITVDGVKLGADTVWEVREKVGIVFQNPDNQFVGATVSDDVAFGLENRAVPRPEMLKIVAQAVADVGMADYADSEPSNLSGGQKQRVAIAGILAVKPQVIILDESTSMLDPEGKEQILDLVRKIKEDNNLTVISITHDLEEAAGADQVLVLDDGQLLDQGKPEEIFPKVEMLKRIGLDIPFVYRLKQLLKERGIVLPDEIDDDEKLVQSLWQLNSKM
Sequence of ECF‐FolT2 (Q1GBI9 whole entry): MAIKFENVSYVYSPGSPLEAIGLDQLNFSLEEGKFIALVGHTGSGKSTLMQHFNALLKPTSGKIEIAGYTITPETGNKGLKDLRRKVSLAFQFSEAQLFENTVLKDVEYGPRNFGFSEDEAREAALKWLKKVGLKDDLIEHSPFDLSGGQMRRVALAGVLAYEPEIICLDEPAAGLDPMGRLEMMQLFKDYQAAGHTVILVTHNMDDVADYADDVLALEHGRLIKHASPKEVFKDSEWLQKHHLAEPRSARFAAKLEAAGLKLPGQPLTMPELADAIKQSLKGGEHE
Sequence of ECF‐FolT2 (Q1GBI8 entry or part of it): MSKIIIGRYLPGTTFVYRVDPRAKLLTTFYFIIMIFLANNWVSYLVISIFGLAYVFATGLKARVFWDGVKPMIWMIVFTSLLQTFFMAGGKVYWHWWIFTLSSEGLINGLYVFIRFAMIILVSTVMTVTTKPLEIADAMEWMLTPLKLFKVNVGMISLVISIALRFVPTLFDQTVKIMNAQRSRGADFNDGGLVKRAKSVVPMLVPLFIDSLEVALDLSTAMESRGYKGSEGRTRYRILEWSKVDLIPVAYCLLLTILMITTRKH
Sequence of ECF‐FolT2 (Q1G929 entry or part of it): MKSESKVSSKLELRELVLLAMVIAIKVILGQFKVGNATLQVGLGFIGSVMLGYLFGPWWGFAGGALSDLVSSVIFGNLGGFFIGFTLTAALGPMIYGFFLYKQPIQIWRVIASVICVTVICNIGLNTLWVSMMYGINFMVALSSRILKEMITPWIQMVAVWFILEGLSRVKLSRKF

| SMILES | Kd (ECF‐PanT; [3]) [µM] | Kd (ECF‐PanT; [4]) [µM] | kon (ECF‐PanT) [M⁻¹ s⁻¹] | koff (ECF‐PanT) [s⁻¹] | viability at 48 h, 100 µM ([1]; HepG2 cells) [%] | Percentage inhibition of pantothenate uptake (S. pneumoniae ECF‐PanT) [%] | Kd (ECF‐FolT2; [5]) [µM] | Kd (ECF‐FolT2; [6]) [µM] | kon (ECF‐FolT2; [7]) [M⁻¹ s⁻¹] | koff (ECF‐FolT2; [8]) [s⁻¹] | MIC [2] [µM] | Kd (ECF‐PanT; [9]) [µM] | Kd (ECF‐PanT; [10]) [µM] | viability at 48 h, 100 µM [1] [%] | Kd (ECF‐FolT2; [11]) [µM] | Kd (ECF‐FolT2; [12]) [µM] | kon (ECF‐FolT2; pH 7.5, read-out: k a) [M⁻¹ s⁻¹] | koff (ECF‐FolT2; pH 7.5, read-out: k d) [s⁻¹] |
| --- | --- | --- | --- | --- | --- | --- | --- | --- | --- | --- | --- | --- | --- | --- | --- | --- | --- | --- |
| O=C(O)c1cccc(NCc2ccc(-c3ccc(Cl)cc3)o2)c1 [Compound 4] | 317 ± 3 | 304 ± 6 | 399 ± 4 | 0.127 ± 0.001 | 88 ± 9 | 95.2 | 353 ± 5 | 340 ± 10 | 325 ± 5 | 0.115 ± 0.001 | 64 (≈ 21 µg/mL) |  |  |  |  |  |  |  |
| O=C(O)c1cccc(NCc2ccc(-c3ccccc3Cl)o2)c1 [Compound 6] | 391 ± 6 | 374 ± 6 | 376 ± 6 | 0.147 ± 0.002 | 105 ± 3 | 61.9 | 231 ± 5 | 230 ± 10 | 100000 | 22 ± 3 | 128 (≈ 42 µg/mL) |  |  |  |  |  |  |  |
| CC(C)(C)OC(=O)Nc1ccc(OCc2cccc3ccccc23)cc1C(=O)O [Compound 3] |  |  | 650 ± 9 | 0.0643 ± 0.0006 |  | 80.7 |  |  |  |  | 16 (≈ 6.3 µg/mL) | 96 ± 8 | 99 ± 1 | 49 ± 3 | 128 ± 9 | 132 ± 3 | 570 ± 10 | 0.0755 ± 0.0008 |
| O=C(O)c1cc(OCc2ccc(Br)c3ccccc23)ccc1O [Compound 2] |  |  |  |  |  | 117.2 |  |  |  |  | 8 (≈ 2.99 µg/mL) | 170 ± 5 | 172 ± 2 | 23 ± 7 | 190 ± 20 | 185 ± 3 |  |  |
| O=C(O)c1cc(OCc2cccc3ccccc23)ccc1O [Compound 1] |  |  |  |  |  | 81.8 |  |  |  |  | 128 (≈ 37.7 µg/mL) | 277 ± 5 | 276 ± 4 | 20 ± 2 | 300 ± 20 | 294 ± 6 |  |  |
| O=C(O)c1cccc(NCc2ccc(-c3cccc(Cl)c3)o2)c1 [Compound 5] | 451 ± 8 | 420 ± 10 | 348 ± 7 | 0.157 ± 0.002 | 106 ± 8 | 90.6 | 328 ± 6 | 300 ± 30 | 570 ± 10 | 0.187 ± 0.003 | 128 (≈ 42 µg/mL) |  |  |  |  |  |  |  |
